What was measured:
[1] = species on record: Homo sapiens; test: Selectivity index, ratio of IC50 for human recombinant CYP1A2 to IC50 for human recombinant CYP1B1 using 7-ethoxyresorufin as substrate in presence of glucose-6-phosphate, glucose-6-phosphate dehydrogenase and NADPH-generating system by fluorometry
[2] = biological target: T1, Cytochrome P450 1B1 (Homo sapiens, UniProt Q16678); test: Inhibition of human recombinant CYP1B1 using 7-ethoxyresorufin as substrate in presence of glucose-6-phosphate, glucose-6-phosphate dehydrogenase and NADPH-generating system incubated for 35 mins by fluorometry
T1 sequence (Q16678 whole entry): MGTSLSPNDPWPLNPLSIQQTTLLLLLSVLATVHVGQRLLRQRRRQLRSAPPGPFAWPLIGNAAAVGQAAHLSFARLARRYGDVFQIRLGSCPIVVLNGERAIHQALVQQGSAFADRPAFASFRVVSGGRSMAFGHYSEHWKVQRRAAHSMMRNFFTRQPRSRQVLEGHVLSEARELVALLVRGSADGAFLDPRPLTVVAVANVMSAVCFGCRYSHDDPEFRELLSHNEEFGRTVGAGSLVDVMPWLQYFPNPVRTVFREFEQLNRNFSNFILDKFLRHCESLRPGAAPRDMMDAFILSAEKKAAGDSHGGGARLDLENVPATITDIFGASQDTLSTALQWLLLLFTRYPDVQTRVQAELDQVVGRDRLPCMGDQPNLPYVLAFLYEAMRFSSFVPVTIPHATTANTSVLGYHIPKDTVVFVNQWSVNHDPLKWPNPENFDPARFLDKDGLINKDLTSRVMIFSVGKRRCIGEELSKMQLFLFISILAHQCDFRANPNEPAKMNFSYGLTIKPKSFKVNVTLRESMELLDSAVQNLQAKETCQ

[3] = species on record: Homo sapiens; test: Selectivity index, ratio of IC50 for human recombinant CYP1A1 to IC50 for human recombinant CYP1B1 using 7-ethoxyresorufin as substrate in presence of glucose-6-phosphate, glucose-6-phosphate dehydrogenase and NADPH-generating system by fluorometry
[4] = biological target: T2, Cytochrome P450 1A2 (Homo sapiens, UniProt P05177); test: Inhibition of human recombinant CYP1A2 using 7-ethoxyresorufin as substrate in presence of glucose-6-phosphate, glucose-6-phosphate dehydrogenase and NADPH-generating system incubated for 50 mins by fluorometry; format: ADME
T2 sequence (P05177 whole entry): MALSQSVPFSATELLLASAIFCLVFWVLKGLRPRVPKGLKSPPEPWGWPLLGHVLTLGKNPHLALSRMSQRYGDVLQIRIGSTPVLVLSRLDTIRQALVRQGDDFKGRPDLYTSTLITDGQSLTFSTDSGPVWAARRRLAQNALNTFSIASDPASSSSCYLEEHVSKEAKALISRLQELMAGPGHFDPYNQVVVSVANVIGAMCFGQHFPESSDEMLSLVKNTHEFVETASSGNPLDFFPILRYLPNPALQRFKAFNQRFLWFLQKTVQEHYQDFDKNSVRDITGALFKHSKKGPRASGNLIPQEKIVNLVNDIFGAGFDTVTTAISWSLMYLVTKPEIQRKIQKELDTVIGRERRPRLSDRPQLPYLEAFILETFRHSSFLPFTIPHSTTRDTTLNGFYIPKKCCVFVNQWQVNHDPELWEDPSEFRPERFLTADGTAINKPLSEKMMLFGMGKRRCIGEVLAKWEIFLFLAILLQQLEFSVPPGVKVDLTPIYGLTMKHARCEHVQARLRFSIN

[5] = biological target: T3, Cytochrome P450 1A1 (Homo sapiens, UniProt P04798); test: Inhibition of human recombinant CYP1A1 using 7-ethoxyresorufin as substrate in presence of glucose-6-phosphate, glucose-6-phosphate dehydrogenase and NADPH-generating system incubated for 15 mins by fluorometry; format: ADME
T3 sequence (P04798 whole entry): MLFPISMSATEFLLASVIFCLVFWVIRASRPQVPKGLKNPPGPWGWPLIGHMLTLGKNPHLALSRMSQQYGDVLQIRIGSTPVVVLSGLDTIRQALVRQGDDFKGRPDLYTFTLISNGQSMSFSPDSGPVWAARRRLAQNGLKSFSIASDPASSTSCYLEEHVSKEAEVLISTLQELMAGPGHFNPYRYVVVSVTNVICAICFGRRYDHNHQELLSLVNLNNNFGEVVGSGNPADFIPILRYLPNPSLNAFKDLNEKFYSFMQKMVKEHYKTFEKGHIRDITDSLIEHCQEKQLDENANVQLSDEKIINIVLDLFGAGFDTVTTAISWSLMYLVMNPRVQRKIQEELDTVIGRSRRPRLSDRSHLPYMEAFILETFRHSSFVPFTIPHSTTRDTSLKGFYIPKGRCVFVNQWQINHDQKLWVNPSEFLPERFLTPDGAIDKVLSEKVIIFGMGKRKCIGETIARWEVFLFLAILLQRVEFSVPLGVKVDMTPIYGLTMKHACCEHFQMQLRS

[6] = biological target: T1, Cytochrome P450 1B1; test: Potency index, ratio of IC50 for ANF to IC50 for test compound for inhibition of human recombinant CYP1B1 using 7-ethoxyresorufin as substrate in presence of glucose-6-phosphate, glucose-6-phosphate dehydrogenase and NADPH-generating system incubated for 35 mins by fluorometry; conditions: read-out: Ratio IC50

O=C1C=C(c2ccccc2)S(=O)(=O)c2c1ccc1ccccc21
Ratio IC50 [1]: 0.8
IC50 [2]: 223 nM
Ratio IC50 [3]: 0.6
IC50 [4]: 170 nM
IC50 [5]: 129 nM

COc1cc(-c2cc(=O)c3ccc4ccccc4c3o2)cc(OC)c1OC
Ratio IC50 [1]: > 196
IC50 [2]: 5.1 nM
Ratio IC50 [3]: 0.6
IC50 [4]: > 1000 nM
IC50 [5]: 3 nM

S=c1cc(-c2cccc(Cl)c2)oc2c1ccc1ccccc12
Ratio IC50 [1]: 32.4
IC50 [2]: 9.4 nM
Ratio IC50 [3]: 3.4
IC50 [4]: 304 nM
IC50 [5]: 31.7 nM

COc1cc(Cl)cc(-c2cc(=O)c3ccc4ccccc4c3o2)c1
IC50 [2]: 3.2 nM
Ratio IC50 [3]: 51.2
IC50 [4]: > 1000 nM
IC50 [5]: 164 nM

COc1cccc(-c2cc(=S)c3ccc4ccccc4c3o2)c1
Ratio IC50 [1]: 33.5
IC50 [2]: 9.1 nM
Ratio IC50 [3]: 8
IC50 [4]: 305 nM
IC50 [5]: 72.8 nM

O=c1cc(-c2ccccc2Cl)oc2c1ccc1ccccc12
Ratio IC50 [1]: 5.2
IC50 [2]: 21.6 nM
Ratio IC50 [3]: 10.6
IC50 [4]: 113 nM
IC50 [5]: 228 nM

Fc1cccc(-c2cc(=S)c3ccc4ccccc4c3o2)c1
Ratio IC50 [1]: 26.8
IC50 [2]: 5 nM
Ratio IC50 [3]: 5
IC50 [4]: 134 nM
IC50 [5]: 25.1 nM

COc1cccc(-c2cc(=O)c3ccc4ccccc4c3o2)c1
Ratio IC50 [1]: 46.8
IC50 [2]: 3.8 nM
Ratio IC50 [3]: 9.4
IC50 [4]: 178 nM
IC50 [5]: 35.8 nM

O=c1cc(-c2ccc3ccccc3c2)oc2c1ccc1ccccc12
Ratio IC50 [1]: > 20.7
IC50 [2]: 48.4 nM
Ratio IC50 [3]: 1
IC50 [4]: > 1000 nM
IC50 [5]: 46.4 nM

O=c1cc(-c2cccc(C(F)(F)F)c2)oc2c1ccc1ccccc12
selectivity ratio at 35 min [6]: 11.3
Ratio IC50 [1]: 181
IC50 [2]: 0.52 nM
Ratio IC50 [3]: 32.1
IC50 [4]: 94.2 nM
IC50 [5]: 16.7 nM

O=c1cc(-c2ccc(Cl)cc2)oc2c1ccc1ccccc12
Ratio IC50 [1]: 2.5
IC50 [2]: 4.2 nM
Ratio IC50 [3]: 1
IC50 [4]: 10.6 nM
IC50 [5]: 4.3 nM

O/N=c1\cc(-c2cccc(Cl)c2)oc2c1ccc1ccccc12
Ratio IC50 [1]: 77.3
IC50 [2]: 10.4 nM
Ratio IC50 [3]: 9.1
IC50 [4]: 804 nM
IC50 [5]: 94.9 nM

O=c1cc(-c2ccc(Cl)cc2)sc2c1ccc1ccccc12
Ratio IC50 [1]: 4
IC50 [2]: 51.9 nM
Ratio IC50 [3]: 0.2
IC50 [4]: 212 nM
IC50 [5]: 9 nM

O=c1cc(-c2ccc(F)c(F)c2)oc2c1ccc1ccccc12
Ratio IC50 [1]: 5.1
IC50 [2]: 5.6 nM
Ratio IC50 [3]: 2.1
IC50 [4]: 28.6 nM
IC50 [5]: 11.8 nM

O/N=c1\cc(-c2ccccc2)oc2c1ccc1ccccc12
Ratio IC50 [1]: 23.3
IC50 [2]: 3.2 nM
Ratio IC50 [3]: 10
IC50 [4]: 74.6 nM
IC50 [5]: 32.1 nM

O=c1cc(-c2cccc(Cl)c2)sc2c1ccc1ccccc12
Ratio IC50 [1]: 7.3
IC50 [2]: 40.5 nM
Ratio IC50 [3]: 0.3
IC50 [4]: 296 nM
IC50 [5]: 13.6 nM

COc1cc(-c2cc(=S)c3ccc4ccccc4c3o2)cc(OC)c1OC
Ratio IC50 [1]: > 53.2
IC50 [2]: 18.8 nM
Ratio IC50 [3]: 1.5
IC50 [4]: > 1000 nM
IC50 [5]: 28.2 nM

O=C1C=C(c2cccc(Cl)c2)S(=O)(=O)c2c1ccc1ccccc21
Ratio IC50 [1]: 2.8
IC50 [2]: 250 nM
Ratio IC50 [3]: > 4
IC50 [4]: 699 nM
IC50 [5]: > 1000 nM

— ChEMBL document CHEMBL4376853, “Synthesis and structure-activity relationship studies of α-naphthoflavone derivatives as CYP1B1 inhibitors” (Eur J Med Chem, 2020)
